Laboratory results taken from ChEMBL document CHEMBL6134868, “Novel Aryl Sulfonium Modification on Vancomycin to Tackle MRSA and VRE In Vitro and In Vivo through Dual Enhanced Cell-Wall and Membrane Inhibition” (J Med Chem, 2025).

How the values were obtained:
Format in all cases: functional
Conditions in all cases: time 16-24 hrs
[1] = test system: Enterococcus faecium; assay: Antibacterial activity against vancomycin-resistant Enterococcus faecium Efm-HS-0649 harboring VanA phenotype incubated for 16 to 24 hrs by broth microdilution assay
[2] = test system: Staphylococcus aureus; assay: Antibacterial activity against methicillin-resistant Staphylococcus aureus USA300 LAC incubated for 16 to 24 hrs by broth microdilution assay
[3] = test system: Staphylococcus aureus; assay: Antibacterial activity against vancomycin-intermediate Staphylococcus aureus Mu50 incubated for 16 to 24 hrs by broth microdilution assay
[4] = test system: Klebsiella pneumoniae; assay: Antibacterial activity against Klebsiella pneumoniae KP-1 incubated for 16 to 24 hrs by broth microdilution assay
[5] = test system: Enterococcus faecium; assay: Antibacterial activity against vancomycin-resistant Enterococcus faecium Efm-HS-vb01 harboring VanB phenotype incubated for 16 to 24 hrs by broth microdilution assay
[6] = test system: Enterococcus faecium; assay: Antibacterial activity against vancomycin-resistant Enterococcus faecium Efm-HS-08257 harboring VanM phenotype incubated for 16 to 24 hrs by broth microdilution assay
[7] = test system: Pseudomonas aeruginosa; assay: Antibacterial activity against Pseudomonas aeruginosa PAO1 incubated for 16 to 24 hrs by broth microdilution assay
[8] = test system: Acinetobacter baumannii; assay: Antibacterial activity against carbapenem-resistant Acinetobacter baumannii CRAB-1 clinical isolate incubated for 16 to 24 hrs by broth microdilution assay
[9] = test system: Escherichia coli; assay: Antibacterial activity against Escherichia coli AB1157 incubated for 16 to 24 hrs by broth microdilution assay
[10] = test system: Enterococcus faecium; assay: Antibacterial activity against vancomycin-resistant Enterococcus faecium Efm-HS-vb02 harboring VanB phenotype incubated for 16 to 24 hrs by broth microdilution assay
[11] = test system: Acinetobacter baumannii; assay: Antibacterial activity against Acinetobacter baumannii ATCC19606 incubated for 16 to 24 hrs by broth microdilution assay

Structure (SMILES)	MIC [1] [µg/mL]	MIC [2] [µg/mL]	MIC [3] [µg/mL]	MIC [4] [µg/mL]	MIC [5] [µg/mL]	MIC [6] [µg/mL]	MIC [7] [µg/mL]	MIC [8] [µg/mL]	MIC [9] [µg/mL]	MIC [10] [µg/mL]	MIC [11] [µg/mL]
CN[C@H](CC(C)C)C(=O)N[C@H]1C(=O)N[C@@H](CC(N)=O)C(=O)N[C@H]2C(=O)N[C@H]3C(=O)N[C@H](C(=O)N[C@H](C(=O)O)c4cc(O)cc(O)c4-c4cc3ccc4O)[C@H](O)c3ccc(c(Cl)c3)Oc3cc2cc(c3O[C@@H]2O[C@H](CO)[C@@H](O)[C@H](O)[C@H]2O[C@H]2C[C@](C)(NCCC[S+](C)CC(O)COc3ccccc3)[C@H](O)[C@H](C)O2)Oc2ccc(cc2Cl)[C@H]1O.O=C([O-])C(F)(F)F (stereo partly specified)	16	0.25	1	> 128	16	16	> 128	128	128	4	128
CN[C@H](CC(C)C)C(=O)N[C@H]1C(=O)N[C@@H](CC(N)=O)C(=O)N[C@H]2C(=O)N[C@H]3C(=O)N[C@H](C(=O)N[C@H](C(=O)NCCC[S+](C)C[C@H](O)COc4ccccc4)c4cc(O)cc(O)c4-c4cc3ccc4O)[C@H](O)c3ccc(c(Cl)c3)Oc3cc2cc(c3O[C@@H]2O[C@H](CO)[C@@H](O)[C@H](O)[C@H]2O[C@H]2C[C@](C)(N)[C@H](O)[C@H](C)O2)Oc2ccc(cc2Cl)[C@H]1O.O=C([O-])C(F)(F)F (stereo partly specified)	32	0.25	1	> 128	16	16	128	> 128	16	4	64
CN[C@H](CC(C)C)C(=O)N[C@H]1C(=O)N[C@@H](CC(N)=O)C(=O)N[C@H]2C(=O)N[C@H]3C(=O)N[C@H](C(=O)N[C@H](C(=O)NCCC[S+](C)CC(O)CCc4ccccc4)c4cc(O)cc(O)c4-c4cc3ccc4O)[C@H](O)c3ccc(c(Cl)c3)Oc3cc2cc(c3O[C@@H]2O[C@H](CO)[C@@H](O)[C@H](O)[C@H]2O[C@H]2C[C@](C)(N)[C@H](O)[C@H](C)O2)Oc2ccc(cc2Cl)[C@H]1O.O=C([O-])C(F)(F)F (stereo partly specified)	32	0.5	2	> 128	32	32	128	> 128	32	2	> 128
CN[C@H](CC(C)C)C(=O)N[C@H]1C(=O)N[C@@H](CC(N)=O)C(=O)N[C@H]2C(=O)N[C@H]3C(=O)N[C@H](C(=O)N[C@H](C(=O)NCCC[S+](C)CC(O)COc4ccc(-c5ccc(C(F)(F)F)cc5)cc4)c4cc(O)cc(O)c4-c4cc3ccc4O)[C@H](O)c3ccc(c(Cl)c3)Oc3cc2cc(c3O[C@@H]2O[C@H](CO)[C@@H](O)[C@H](O)[C@H]2O[C@H]2C[C@](C)(N)[C@H](O)[C@H](C)O2)Oc2ccc(cc2Cl)[C@H]1O.O=C([O-])C(F)(F)F (stereo partly specified)	2	0.5	0.25	> 128	4	1	> 128	128	16	0.5	32
CN[C@H](CC(C)C)C(=O)N[C@H]1C(=O)N[C@@H](CC(N)=O)C(=O)N[C@H]2C(=O)N[C@H]3C(=O)N[C@H](C(=O)N[C@H](C(=O)NCCC[S+](C)CC(O)COc4ccc(-c5ccccc5)cc4)c4cc(O)cc(O)c4-c4cc3ccc4O)[C@H](O)c3ccc(c(Cl)c3)Oc3cc2cc(c3O[C@@H]2O[C@H](CO)[C@@H](O)[C@H](O)[C@H]2O[C@H]2C[C@](C)(N)[C@H](O)[C@H](C)O2)Oc2ccc(cc2Cl)[C@H]1O.O=C([O-])C(F)(F)F (stereo partly specified)	8	≤ 0.063	0.5	> 128	4	4	> 128	128	16	1	32
CN[C@H](CC(C)C)C(=O)N[C@H]1C(=O)N[C@@H](CC(N)=O)C(=O)N[C@H]2C(=O)N[C@H]3C(=O)N[C@H](C(=O)N[C@H](C(=O)O)c4cc(O)cc(O)c4-c4cc3ccc4O)[C@H](O)c3ccc(c(Cl)c3)Oc3cc2cc(c3O[C@@H]2O[C@H](CO)[C@@H](O)[C@H](O)[C@H]2O[C@H]2C[C@](C)(NCCC[S+](C)C[C@@H](O)COc3ccccc3)[C@H](O)[C@H](C)O2)Oc2ccc(cc2Cl)[C@H]1O.O=C([O-])C(F)(F)F (stereo partly specified)	16	0.25	1	> 128	16	16	> 128	128	128	4	128
